# Experimental data: US11692028B2, “Map kinase pathway targets for the treatment of Marfan syndrome” (The Johns Hopkins University, priority 2017, dated 2023)
# How the values were obtained:
# [1] = test system: 129 MFS mice (Fbn1C1039G/+ on 129S6/SvEvTac background); experiment: Aortic root growth by echocardiography in drug-treated 129 MFS mice; assay type: in vivo, mouse; details: for aortic root growth: FIG. 2B
# Experimental: Losartan was dissolved in drinking water and filtered to reach a concentration of 0.6 g/L, giving an estimated daily dose of 60 mg/kg/day, as described previously (Habashi, J. P. et al. Science 312, 117-21 (2006)). Mice were started on losartan at 2 months of age and continued for 8 months. Placebo-treated animals received regular drinking water. RDEA119 was reconstituted in 10% 2-hydroxypropyl-beta-cyclodextrin (Sigma-Aldrich, Mo., USA) dissolved in PBS, and administered twice daily by oral gavage at a dose of 25 mg/kg, as described previously (Holm, T. M. et al. Science 15, 358-61 (2011)). Treatment was initiated at 2 months of age and continued for 2 months. 10% 2-hydroxypropyl-beta-cyclodextrin dissolved in PBS was administered as a control. Erlotinib was reconstituted in 1% methylcellulose (Sigma-Aldrich) dissolved in PBS, and administered daily by oral gavage at a dose of 50 mg/kg. Treatment was initiated at 2 months of age and continued for 2 months. 1% methylcellulose dissolved in PBS was administered as a control.
# Mouse echocardiography: Nair hair removal cream was used on all mice the day prior to echocardiography. All echocardiograms were performed on awake, unsedated mice using the VisualSonics Vevo 2100 imaging system and a 30 MHz transducer (Fujifilm VisualSonics, ON, Canada). The aorta was imaged using a parasternal, long-axis view. Three separate measurements of the maximal internal dimension at the sinus of Valsalva and proximal ascending aorta were made from distinct captured images and averaged. All imaging and measurements were performed blinded to genotype and treatment arm.
# [2] = test system: pSmad2, pErk1/2, pp38, pEgfr; experiment: Western blot analysis of the aortic root of treated 129 MFS mice; assay type: in vivo, mouse; details: for signaling cascade activation in aortic root (Western blot): treated 129 MFS mice at 4 months of age, FIG. 2E, 3G
# Experimental: Losartan was dissolved in drinking water and filtered to reach a concentration of 0.6 g/L, giving an estimated daily dose of 60 mg/kg/day, as described previously (Habashi, J. P. et al. Science 312, 117-21 (2006)). Mice were started on losartan at 2 months of age and continued for 8 months. Placebo-treated animals received regular drinking water. RDEA119 was reconstituted in 10% 2-hydroxypropyl-beta-cyclodextrin (Sigma-Aldrich, Mo., USA) dissolved in PBS, and administered twice daily by oral gavage at a dose of 25 mg/kg, as described previously (Holm, T. M. et al. Science 15, 358-61 (2011)). Treatment was initiated at 2 months of age and continued for 2 months. 10% 2-hydroxypropyl-beta-cyclodextrin dissolved in PBS was administered as a control. Erlotinib was reconstituted in 1% methylcellulose (Sigma-Aldrich) dissolved in PBS, and administered daily by oral gavage at a dose of 50 mg/kg. Treatment was initiated at 2 months of age and continued for 2 months. 1% methylcellulose dissolved in PBS was administered as a control. Mice that were sacrificed for Western Blot analysis had their proximal ascending aortas immediately dissected, flash frozen in liquid nitrogen and stored at -80° C. until further processing. Protein was extracted using the reagents and protocol from a Total Protein Extraction Kit containing protease inhibitor and Protein Phosphatase Inhibitor Cocktail (Millipore, Mass., USA). Aortas were homogenized using a pellet pestle motor (Kimble-Kontes, N.J., USA) as per the extraction kit protocol. Samples were then stored once more at -80° C. until Western blot analysis was performed. […] PBS-T). Equal protein loading of samples was determined by a protein assay (Bio-Rad, Calif., USA) and confirmed by probing with an antibody against β-Actin (Sigma-Aldrich #A5316). […] Blots were then washed in PBS-T, developed using SuperSignal West Femto HRP substrate (Pierce Scientific, Ill., USA), exposed to BioMax Scientific Imaging Film (Sigma), and quantified using ImageJ analysis software (NIH, Md., USA).
# [3] = test system: Fbn1C1039G/+ mice (MFS mice); details: cited from earlier work; for aortic disease in MFS mice: literature (Habashi 2006; Holm 2011; Habashi 2011; Doyle 2015)
# [4] = test system: TGFβ signal transduction (p-SMAD2); details: measured by p-SMAD2 western blot analysis; cited from earlier work
# [5] = test system: TGFβ induction in vascular tissues; details: literature; cited from earlier work
# [6] = test system: 129 MFS mice (Fbn1C1039G/+ on 129S6/SvEvTac background); experiment: Survival / premature lethality from aortic dissection in 129 MFS mice; assay type: in vivo, mouse; details: losartan, up to 8 months of treatment, FIG. 2C
# Excerpt: Mice were cared for under compliance with the Animal Care and Use Committee of the Johns Hopkins University School of Medicine. Fbn1^C1039G/+ mice on a pure C57BL/6J background were already onsite. Mice on a pure 129S6/SvEvTac background were obtained from Taconic Biosciences (Rensselaer County, N.Y., USA). The Fbn1^C1039G/+ mice on a pure C57BL/6J background were bred into a pure 129S6/SvEvTac background and backcrossed for >10 generations. Mice haploinsufficient or knockout for Mmp17 (B6.129P2-Mmp17^rm1Dg^en/J; #005824), Map2k6 (B6.129S1-Map2k6^tm1Flv/J; #008382) and Map3k4 (B6.129S6-Map3k4^tm1Flv/J; #008375) were obtained from the Jackson Laboratory (Bar Harbor, Me., USA), and bred to Fbn1C1039G/+ mice. Animals were checked daily for death and all mice found dead were immediately autopsied to assess for evidence of aortic dissection. Mice that were sacrificed were done so using a lethal dose of ketamine and acepromazine (1 ml of 10 mg/ml acepromazine in 10 mls of 100 mg/ml ketamine; MWI Vet, ID, USA). At the time of sacrifice, mice underwent immediate laparotomy and descending abdominal aortic transection. Phosphate buffered saline (PBS) was infused through the right and left ventricles to flush out the blood. […]
# [7] = test system: patients with MFS; details: literature (Lacro et al., NEJM 371, 2061); cited from earlier work
# [8] = oral gavage from 2 to 4 months of age (RDEA119 25 mg/kg twice daily; erlotinib 50 mg/kg daily), 3F
SMILES,"all aortic parameters (aortic root size, post-natal aortic root growth, premature lethality from dissection) [1]","aortic root growth [1, 8]",signaling cascade activation in aortic root (Western blot) [2],aortic disease in MFS mice [3],further results
COc1cc(F)c(F)c(Nc2ccc(I)cc2F)c1NS(=O)(=O)C1(C[C@H](O)CO)CC1 [RDEA119],fully rescued,reduced aortic root growth to a rate equal to that of WT animals,"selective reduction in noncanonical (Erk1/2, p38) cascades",can suppress aortic disease in MFS mice,
Fc1ccc(Cl)cc1-c1nc(Nc2ccncc2)c2nccnc2n1 [SD-208],,,,,TGFβ signal transduction [4]: inhibits TGFβ signal transduction in a dose-dependent fashion
C#Cc1cccc(Nc2ncnc3cc(OCCOC)c(OCCOC)cc23)c1 [erlotinib],,abrogated aortic root growth,"reduced activation of Egfr, Erk1/2, and p38",,Ang-II infusion-mediated TGFβ induction in vascular tissues [5]: can abrogate Ang-II infusion-mediated TGFβ induction in vascular tissues
CCCCc1nc(Cl)c(CO)n1Cc1ccc(-c2ccccc2-c2nn[nH]n2)cc1 [losartan],fully rescued,,,can suppress aortic disease in MFS mice,"aortic root growth ([1]; losartan 0.6 g/L in drinking water (est. 60 mg/kg/day), growth from 2 to 6 months): reduced aortic root growth to a rate equal to that of WT animals; premature lethality (survival) [6]: ameliorated premature lethality; TGFβ signaling cascades in aortic root (Western blot) ([2]; losartan-treated 129 MFS mice at 10 months of age, FIG. 2D): reduction in both canonical (Smad2) and noncanonical (Erk1/2, p38) TGFβ signaling cascades; multiple phenotypic manifestations (aortic aneurysm, developmental emphysema, mitral valve disease, skeletal muscle myopathy) ([3]; Fbn1C1039G/+ mice, in association with blunted Smad2/3 activation, literature): can be attenuated; aortic root growth in patients with MFS [7]: some degree of rescue of aortic root growth"
